C#C[C@]1(O)CC[C@H]2[C@@H]3CCC4=CC(=O)CC[C@@H]4[C@H]3C(=C)C[C@@]21CC
solubility (mole fraction)
Settings	278.15 K	283.15 K	288.15 K	293.15 K	298.15 K	303.15 K	308.15 K	313.15 K	318.15 K	323.15 K
in DMF	0.0797	0.084	0.0882	0.093	0.0975	0.102	0.107	0.112	0.117	0.121
in isopropanol	0.00597	0.00697	0.00803	0.00923	0.0106	0.0121	0.0137	0.0156	0.0174	0.0195
in n-propanol	0.00504	0.00579	0.00677	0.00783	0.00901	0.0103	0.0117	0.0132	0.015	0.0168
in water	1.48e-05	1.8e-05	2.15e-05	2.56e-05	3.11e-05	3.69e-05	4.3e-05	5.03e-05	5.85e-05	6.78e-05

Source: BigSolDB 2.1
